# Experimental data as given in patent US20240115531A1, “Composition for Treating Hair and Scalp” (DR. KURT WOLFF GMBH & CO. KG, priority 2020, published 2024).
# Entries after “also recorded” stand apart in the source; their conditions may differ.
# Tests used:
# VEGF = experiment: Gene expression of VEGF by qRT-PCR in HaCaT cells; format: cell-based, human; settings: after 24 hours of cultivation, versus control without DMG, FIG. 3
# Protocol: VEGF (Vascular Endothelial Growth Factor) promotes the growth and formation of new blood and lymphatic vessels. Gene expression was measured using a standard method known as quantitative real-time PCR (qRT-PCR).
# Human epidermal keratinocyte cells (HaCaT) were seeded in a 6-well plate at a cell density of 140,000 cells/well and cultured in medium (DMEM with 10% FBS, 1% penicillin-streptomycin, 0.5% fungizone) at 37° C. und 5% by volume CO2. The next day, the cell culture medium without (control) or with the active substance concentrations already present in each case was changed, and the cells were harvested after 24 hours. Gene expression was measured using qRT-PCR based on studies already published in B. V. Diaz, M.-C. Lenoir, A. Ladoux, C. Frelin, M. Demarchez, S. Michel, Journal of Biological Chemistry 2000, 275, 642-650.
# The relative gene expression determined by qRT-PCR (triple determination, normalized to the respective gene expression of a constitutively expressed gene; GAPDH—glyceraldehyde-3-phosphate dehydrogenase) of VEGF is shown. Shown is the mean value with standard deviation.
# [1] = test system: Human epidermal keratinocyte cells (HaCaT); experiment: CyQUANT assay, cell proliferation of HaCaT keratinocytes; format: cell-based; settings: versus control without DMG, FIG. 2
# Protocol: (§1) 1. As part of an in vitro study, the effect of Na-dimethylglycinate was examined in a cell culture model with human horn-forming keratinocyte cells. For this purpose, HaCaT cells were cultured for 1, 3, 5, and 7 days in DMEM medium (including fetal calf serum and an anti biotic-anti mycotic mix) and, among other things, the viability and proliferation of the cells were determined using suitable measurement methods, and the expression of the growth factors relevant for cell growth was measured.
# A so-called CyQUANT assay was carried out to measure the proliferation. In this fluorescence-based assay, the fluorescent dye used binds to DNA (deoxyribonucleic acid), with the content of cellular DNA being a direct measure of the number of cells in a sample.
# Human epidermal keratinocyte cells (HaCaT) were seeded in a 96-well plate at a cell density of 5,000 cells/well and cultured in medium (DMEM with 10% FBS, 1% penicillin-streptomycin, 0.5% fungizone). The next day and after a further 24 h as well as 48 h and 72 h of cultivation at 37° C. and 5% by volume CO2, the cell culture medium without (control) or with the active ingredient concentrations already present was changed. […]
# The cell proliferation was determined using the CyQUANT assay. The fluorescence was measured in triplicate and normalized to the control at 24 hours. […]
# [2] = test system: Human epidermal keratinocyte cells (HaCaT); experiment: MTT assay, cell viability of HaCaT keratinocytes; format: cell-based; settings: versus control without DMG, FIG. 1
# Protocol: as §1
# For this measurement, a so-called MTT assay was used to determine cellular metabolic activity as an indicator of cell viability and cytotoxicity. This colorimetric assay is based on the reduction of a yellow tetrazolium salt (3-(4,5-dimethylthiazol-2-yl)-2,5-diphenyltetrazolium bromide or MTT) to purple formazan crystals by metabolically active cells.
# Human epidermal keratinocyte cells (HaCaT) were seeded in a 96-well plate at a cell density of 5,000 cells/well and cultured in medium (DMEM with 10% FBS, 1% penicillin-streptomycin, 0.5% fungizone). […]
# Cell viability was determined using the MTT assay. The absorption was measured in quadruplicate and normalized to the control at 24 hours. […]
structure (smiles),measurement,setting,value
"CN(C)CC(=O)[O-].[Na+] [DMG, sodium dimethylglycinate]",relative gene expression of VEGF (normalized to GAPDH),VEGF,significant increase; also recorded: significantly increased
same,cell proliferation (CyQUANT fluorescence normalized to the control at 24 hours),[1]; after 48 h of cultivation,clear increase
same,cell proliferation (CyQUANT fluorescence normalized to the control at 24 hours),[1]; after 72 h of cultivation,clear increase
same,cell viability (MTT absorption normalized to the control at 24 hours),[2]; after 48 h of cultivation,clear increase
same,cell viability (MTT absorption normalized to the control at 24 hours),[2]; after 72 h of cultivation,clear increase
